Assay results taken from patent US9790188B2, “Benzimidazole derivatives and uses thereof” (Whitehead Institute for Biomedical Research, priority 2013, dated 2017).
Entries after “also recorded” stand apart in the source; their conditions may differ.

Assays:
[1] = tested on: TH-positive (dopaminergic) neurons; assay: Primary ventral mesencephalic cultures transduced with A53T α-syn; assay type: cell-based, rat; details: A53T α-syn adenovirus, 0.1 μM
Method: Experiments aimed at monitoring dopaminergic cell viability in primary mesencephalic cultures were performed as described previously (7-9). Briefly, cells obtained from the midbrains of E17 rat embryos were plated at a density of 2.18×10^3 cells per mm^2 on a 48-well plate. Four days after plating, the cells were treated with cytosine arabinofuranoside (20 μM) to restrict the growth of glial cells. Three days later (7 days in vitro), the cells were transduced with an adenovirus encoding A53T α-syn, generated using the Invitrogen ViraPower Adenoviral Expression System (38), at a multiplicity of infection (MOI) of 15 in the absence or presence of ABI1 (0.1 μM). After a 72-h transduction period, the media was replaced with fresh media with or without ABI1 for an additional 24 h. […] MAP2- and TH-immunoreactive neurons were counted by an investigator blinded to the identity of the treatment conditions in at least ten randomly chosen observation fields (encompassing ˜800-1600 MAP2^+ neurons) per treatment using a Nikon TE2000-U inverted fluorescence microscope with a 20× objective. Relative dopaminergic cell viability was calculated as the percentage of MAP2-positive neurons that were also TH-positive and normalized by the value determined for control cells (set to 100%). […]

nitrosative stress = assay: Nitrosative stress (protein nitration, 3-NT antibody) in yeast synucleinopathy model; assay type: cell-based
[2] = tested on: dopaminergic (DA) neurons; assay: C. elegans model of α-syn toxicity; assay type: in vivo; details: nematodes expressing α-syn and GFP in DA neurons
Method: Drug treatments of the C. elegans α-syn model were performed as previously described (6). Briefly, age-synchronized worms were obtained by treating gravid adults with 2% sodium hyopchlorite and 0.5M NaOH to isolate embryos (36). Variable concentrations of ABI1 or 0.2% DMSO was applied to embryos suspended in M9 buffer (22 mM KH2PO4, […], 85 mM NaCl, 1 mM MgSO4) (time 0), and incubated at 25 C for 24 hours to obtain a synchronized L1 population. Worms were washed three times in distilled water and one additional rinse in M9 buffer. The synchronized L1 worms were plated on regular nematode growth media (NGM) plates seeded with 100 uL of Eschericia coli (OP50). Worms were then transferred every other day to new plates to insure food abundance and eliminate progeny contamination. Worms were then analyzed seven days post-hatching. Analyses were carried out according to the criteria previously described (37). In each case, ˜30-40 animals were scored for the percent of WT animals. Experiments were completed in triplicate and averages calculated. A one-way ANOVA and Tukey's test was used to determine significance.

Aβ peptide = assay: Yeast growth rescue, Aβ peptide proteinopathy model; assay type: cell-based
Method: (A) Structure of lead compound ABI. (B) Dose-response curves showing the relative rescue of ABI (log2, μM) in five yeast proteinopathy models. Rescue is relative to a positive control compound as determined by growth (OD600). (C) Localization of α-syn-GFP in strains with increasing toxicity: NoTox, InTox, HiTox and HiTox treated with 10 μM ABI. […] (E) (Left panel) Western blot of α-syn-GFP in NoTox, InTox, and HiTox strains with anti-α-syn antibody. (Right panel) Quantitation of western blot (α-syn relative to total protein quantitated from a Coomassie gel and normalized to 100% for HiTo). **: P<0.01; and ***: P<0.001, according to one-way ANOVA and a Tukey's test.
Yeast strains expressing toxic proteins have been described previously (6, 9, 33, 34) (Table 1). All strains have either single or multiple inserts for galactose-inducible expression. In addition, all stains have either deletions of the Δpdr1::KanMX and Δpdr3::KanMX or Δpdr5::KanMX to reduce efflux of compounds and required compound dosing. Yeast were cultured in complete synthetic media (CSM) and an appropriate dropout (minus HIS or URA) to maintain plasmids if required. […]
Starting cultures for all dose-response assays were established as described above. […] Plates were then read with a Tecan Saphire plate reader at OD600.

WT yeast = assay: Viable cells recovered after prolonged treatment at growth inhibitory concentrations
TDP-43 = assay: Yeast growth rescue screen, cells expressing TDP-43; assay type: cell-based; details: yeast expressing TDP-43
From the text: Thus, rescue was not targeted to a common feature of misfolded protein toxicity, but rather reflected the ability of ABI to target specific pathologies related to α-syn (and to a lesser degree TDP-43).
Yeast strains expressing toxic proteins have been described previously (6, 9, 33, 34) (Table 1). All strains have either single or multiple inserts for galactose-inducible expression. In addition, all stains have either deletions of the Δpdr1::KanMX and Δpdr3::KanMX or Δpdr5::KanMX to reduce efflux of compounds and required compound dosing. Yeast were cultured in complete synthetic media (CSM) and an appropriate dropout (minus HIS or URA) to maintain plasmids if required. For galactose-induction experiments, overnight cultures were grown in CSM/2% glucose to saturation and diluted 1:20 into CSM/2% raffinose for ˜2 generations. Cultures were then diluted into CSM/2% galactose at an optimum OD600 for the experiment (see ‘Growth assays’).
Starting cultures for all dose-response assays were established as described above. All growth assays were carried out in 384 well-format. Source plates were assembled in 96 well plates using multichannel pipettes to dilute rows in 1.6-fold serial dilutions of CSMGal. […] Plates were then read with a Tecan Saphire plate reader at OD600. […]

In the case of `Cc1cccc(-n2cnc3cc(C(=O)NCc4ccccc4Cl)ccc32)c1` [ABI, N-(2-chlorobenzyl)-1-(m-tolyl)-1H-benzo[d]imidazole-5-carboxamide], the “retraction of neuronal processes / neurite length” value [1] is reported as “markedly reduced the retraction of neuronal processes; also recorded: reversed”, the “survival of TH-positive neurons (% of MAP2-positive neurons)” value [1] is reported as “largely restored the survival; also recorded: reversed” and the nitrosative stress (nitrosative stress) is reported as “prevented the generation of highly localized nitrosative stress”. The “rescue of DA neurons from α-syn toxicity” value [2] was “partial, yet highly significant, rescue”, the “efficacy against Aβ peptide” value (Aβ peptide) was “not, however, effective” and the viability of cells (WT yeast) was “retained full viability”. For the same compound, the “efficacy against TDP-43 (restoration of growth)” value (TDP-43) was “modest efficacy”.
